Laboratory results as given in ChEMBL document CHEMBL1154116, “Predictive models, based on classification algorithms, for compounds potentially active as mitochondrial ATP-sensitive potassium channel openers” (Bioorg Med Chem, 2009).
Calls of active or inactive are those of the source. No rule for the calls is given here.

What follows are compounds tested on Heart (assay: Cardioprotective effect in Langendorff perfused isolated rat hearts assessed as reduction in ischemic injury).
Type: functional, tissue-based

SMILES | Activity
CC1(C)CC2(CN(Cc3ccc(N)cc3)CCO2)c2ccccc2O1 (stereo not given) | Active
CC1(C)CN(C2=CCCC2=O)c2cc([N+](=O)[O-])ccc2S1 | Active
CC1(C)CC2(CN(C(=O)c3ccccc3)CCO2)c2ccccc2O1 (stereo not given) | inactive
CC1(C)CC2(CN(Cc3ccccc3)C(=S)CO2)c2ccccc2O1 (stereo not given) | Active
Cc1ccc(CN2CCOC3(C2)CC(C)(C)Oc2ccc(Br)cc23)cc1 (stereo not given) | Active
COc1ccccc1CN1CC2(CC(C)(C)Oc3ccccc32)OCC1=O (stereo not given) | Active
COc1ccc(CN2CCOC3(C2)CC(C)(C)Oc2ccccc23)cc1 (stereo not given) | Active
CC1(C)CC2(CN(Cc3ccccc3)CCO2)c2ccccc2O1 (stereo not given) | Active
CC1(C)CC2(CN(Cc3ccccc3)CCO2)c2cc(Br)ccc2O1 (stereo not given) | inactive
COc1cccc(CN2CCOC3(C2)CC(C)(C)Oc2ccccc23)c1 (stereo not given) | inactive
CC1(C)CC2(CN(Cc3ccc(NS(C)(=O)=O)cc3)CCO2)c2ccccc2O1 (stereo not given) | inactive
CC1(C)CC2(CN(Cc3ccc(C(F)(F)F)cc3)CCO2)c2cc(Br)ccc2O1 (stereo not given) | Active
CC1(C)Oc2ccc(C#N)cc2C(N2CCCC2=O)C1O (stereo not given) | Active
CC1(C)CC2(CN(Cc3ccc(NS(C)(=O)=O)cc3)C(=O)CO2)c2cc(Br)ccc2O1 (stereo not given) | Active
CC1(C)CC2(CN(Cc3ccc(C(F)(F)F)cc3)C(=O)CO2)c2ccccc2O1 (stereo not given) | inactive
CC1(C)CC2(CN(Cc3ccc(N)cc3)CCO2)c2cc(Br)ccc2O1 (stereo not given) | inactive
CC1(C)CN(C2=CCCC2=O)c2cc(C(F)(F)F)ccc2S1 | Active
CC(=O)Nc1ccc(CN2CC3(CC(C)(C)Oc4ccc(Br)cc43)OCC2=O)cc1 (stereo not given) | inactive
COc1ccc(CN2CC3(CC(C)(C)Oc4ccccc43)OCC2=O)cc1 (stereo not given) | inactive
CC1(C)CC2(OC(=O)N(Cc3ccc(NS(C)(=O)=O)cc3)C2=N)c2ccccc2O1 (stereo not given) | inactive

SMILES | Activity
CC(=O)Nc1ccc(CN2CC3(CC(C)(C)Oc4ccccc43)OC2=O)cc1 (stereo not given) | inactive
CC1(C)CC2(CN(Cc3ccccc3)C(=O)CO2)c2cc(Br)ccc2O1 (stereo not given) | inactive
CC1(C)CC2(CN(Cc3ccc(Br)cc3)C(=O)CO2)c2cc(Br)ccc2O1 (stereo not given) | inactive
COc1cccc(CN2CC3(CC(C)(C)Oc4ccccc43)OCC2=O)c1 (stereo not given) | inactive
CC1(C)CC2(CN(Cc3ccc(NS(C)(=O)=O)cc3)CCO2)c2cc(Br)ccc2O1 (stereo not given) | Active
CC1(C)CC2(CN(Cc3ccc(C(F)(F)F)cc3)CCO2)c2ccccc2O1 (stereo not given) | inactive
CC1(C)Oc2ccc(C#N)cc2[C@@H](/N=C(\NC#N)Nc2ccc(Cl)cc2)[C@@H]1O (single isomer, unassigned) | Active
CC1(C)CC2(CN(Cc3ccc(C(F)(F)F)cc3)C(=O)CO2)c2cc(Br)ccc2O1 (stereo not given) | inactive
CC1(C)CC2(CN(Cc3ccccc3)C(=S)CO2)c2cc(Br)ccc2O1 (stereo not given) | inactive
CC1(C)CC2(CN(S(=O)(=O)c3ccccc3)CCO2)c2ccccc2O1 (stereo not given) | inactive
CC1(C)CC2(CN(Cc3ccc(NS(C)(=O)=O)cc3)C(=O)CO2)c2ccccc2O1 (stereo not given) | Active
Cc1ccc(CN2CCOC3(C2)CC(C)(C)Oc2ccccc23)cc1 (stereo not given) | Active
CC1(C)CN(C2=CCCC2=O)c2cc(C#N)ccc2S1 | Active
CC(=O)Nc1ccc(CN2CCOC3(C2)CC(C)(C)Oc2ccccc23)cc1 (stereo not given) | inactive
Cc1ccc(CN2CC3(CC(C)(C)Oc4ccc(Br)cc43)OCC2=O)cc1 (stereo not given) | inactive
COc1cccc(CN2CC3(CC(C)(C)Oc4ccc(Br)cc43)OCC2=O)c1 (stereo not given) | inactive
CC1(C)CC2(OC(=O)N(Cc3ccc(NS(C)(=O)=O)cc3)C2=N)c2cc(Br)ccc2O1 (stereo not given) | inactive
CC(N/C(=N\C#N)Nc1ccncc1)C(C)(C)C (stereo not given) | Active
CC(=O)Nc1ccc(CN2CC3(CC(C)(C)Oc4ccccc43)OCC2=O)cc1 (stereo not given) | Active
CC1=Nc2ccc(Cl)cc2S(=O)(=O)N1 | Active

SMILES | Activity
CC1(C)CC2(CN(Cc3ccc(Br)cc3)CCO2)c2ccccc2O1 (stereo not given) | inactive
CCC(C)(C)/N=C(\NC#N)Nc1cccnc1 | inactive
CC1(C)CC2(CN(Cc3ccc(Br)cc3)C(=O)CO2)c2ccccc2O1 (stereo not given) | Active
CC(=O)Nc1ccc(C(=O)N2CCOC3(C2)CC(C)(C)Oc2ccccc23)cc1 (stereo not given) | inactive
Cc1ccc(C(=O)N2CCOC3(C2)CC(C)(C)Oc2ccccc23)cc1 (stereo not given) | inactive
COc1cccc(CN2CCOC3(C2)CC(C)(C)Oc2ccc(Br)cc23)c1 (stereo not given) | Active
CC1(C)CC2(CN(Cc3ccc(N)cc3)C(=O)CO2)c2ccccc2O1 (stereo not given) | Active
CC1(C)CC2(CN(Cc3ccc(N)cc3)C(=O)CO2)c2cc(Br)ccc2O1 (stereo not given) | Active
COc1ccc(CN2CC3(CC(C)(C)Oc4ccc(Br)cc43)OCC2=O)cc1 (stereo not given) | Active
COc1ccc(CN2CCOC3(C2)CC(C)(C)Oc2ccc(Br)cc23)cc1 (stereo not given) | inactive
CC1(C)CC2(CN(Cc3ccccc3)C(=O)CO2)c2ccccc2O1 (stereo not given) | inactive
CC1(C)CC2(CN(C(=O)c3ccccc3)C(=O)CO2)c2ccccc2O1 (stereo not given) | inactive
COc1ccccc1CN1CC2(CC(C)(C)Oc3ccc(Br)cc32)OCC1=O (stereo not given) | Active
CC1(C)CC2(OC(=O)N(Cc3ccccc3)C2=N)c2cc(Br)ccc2O1 (stereo not given) | inactive
CC1(C)CC2(CN(S(=O)(=O)c3ccccc3)C(=O)CO2)c2ccccc2O1 (stereo not given) | inactive
CC1(C)CC2(CN(Cc3ccc(NS(C)(=O)=O)cc3)C(=O)O2)c2ccccc2O1 (stereo not given) | inactive
Cc1ccc(CN2CC3(CC(C)(C)Oc4ccccc43)OCC2=O)cc1 (stereo not given) | inactive
CC1(C)Oc2ccc(C#N)cc2[C@H](N(Cc2ncc[nH]2)c2ccc(Cl)cc2)[C@H]1O | Active
CC(=O)Nc1ccc(CN2C(=N)C3(CC(C)(C)Oc4ccccc43)OC2=O)cc1 (stereo not given) | Active
CC(=O)Nc1ccc(CN2CCOC3(C2)CC(C)(C)Oc2ccc(Br)cc23)cc1 (stereo not given) | inactive
